Patent publication US7625917B2, “Thiolesters and uses thereof” (priority 1998, dated 2009)
Read-outs that look alike come from different tables or passages of the source.

Key:
Assay type in all cases: biochemical
Sp1 = target: T1, Sp1 (Homo sapiens, UniProt P08047); assay: Sp1 super gel shift EMSA (K562 cell nuclear extracts); conditions: specificity for CCHC vs CCHH zinc finger
T1 construct: treatment of K562 cell nuclear extracts with the compounds; host or cells: K562 cell nuclear extracts
Experimental: To determine if compound 44, 45 or 47 binding activity was specific for CCHC zinc fingers, a super gel shift EMSA after treatment of K562 cell nuclear extracts with the compounds was performed. This was followed by super shifting with Sp1-specific antibody. Sp1 was chosen because it is a cellular transcription factor that contains three copies of a classical type CCHH zinc finger motif that are required for Sp1 binding to its DNA target. […] Super gel shifting to determine the specificity of zinc finger reactive compounds was carried out using an Sp1 consensus oligomer (Stratagene, La Jolla, Calif.), K562 cell nuclear extracts, and antibodies for Sp1 (Sp1[PEP2]-G) (extracts and Sp1 Abs from Santa Cruz Biotechnology, Inc., Santa Cruz, Calif.). The binding reactions of oligonucleotides with K562 nuclear extract, as well as electrophoretic conditions were carried out as described in the Gelshift Buffer Kit, Stratagene , La Jolla, Calif.

[1] = target: T2, recombinant HIV-1 NCp7 protein (Human immunodeficiency virus type 1 group M subtype B, UniProt P03347); assay: Trp37 zinc finger fluorescence (zinc ejection) assay; conditions: for zinc finger reactivity in the presence of glutathione (in words): 2 molar excess of glutathione; for Zinc Finger Reactivity RFU/min: average decrease in relative fluorescence units over 30 min; for inhibition at 2000 µM (stock): Table 8, GSH +: 2 mM compound, 2 h at 37° C. with 4 mM reduced glutathione, 30 min incubation, read-out: Zinc Finger Reactivity % Decrease
T2 construct: recombinant HIV-1 NCp7 protein
Experimental: Zinc finger reactivity was measured using a Zn specific fluorochrome, TSQ, N-(6-methoxy-8-quinolyl)-p-toluenesulfonamide, assay or a Trp37 zinc finger fluorescence assay. Fluorescent measurements of the Trp37 residue in the C-terminal finger of recombinant HIV-1 NCp7 protein were performed as described by Rice (1995) Science 270:1194-1197; Rice (1997) Antimicrob. Agents Chemother. 41:419-426. Measurement of Zn ejection from both fingers was measured using the Zn-selective fluorchrome probe TSQ (Molecular Probes, Eugene Oreg.) as described by Rice (1996) J. Med. Chem 39:3606-3616. […] Briefly, 50 nM NCp7 was treated with test compounds for 1 hour at RT in […] buffer containing 10% glycerol and 50 mM Tris-HCl (pH 7.5). Labeled oligomer (0.1 picomole, end labeled [^32P] was added in an equal volume of buffer containing 10% glycerol, 50 mM Tris-HCl (pH 7.5), 400 mM KCl and 40 mM MgCl2. The reaction was continued for 15 min at room temperature, and a total of […] (or ¼ of the total reaction volume) was separated on nondenaturing 4.5% polyacrylamide gels in 0.5× Tris-Borate electrophoresis buffer. NCp7-oligomer complexes were visualized by autoradiography.
Changes in the intrinsic fluorescence of aromatic protein moieties are commonly used to monitor a reaction which involves a change in protein conformation. In the present invention, fluorescence can be used to monitor the loss of metal ion from a zinc finger, e.g., the loss of zinc from a CCHC retroviral zinc finger protein, after contact with a thiolester of the invention. The intrinsic fluorescence of Trp37 in the second zinc finger of HIV-1 NC protein has been used to monitor nucleic acid binding and conformation of the zinc finger complex (see, Summers (1992) supra).
Zinc ejection is measured by the ability of compounds to chemically attack the cysteines in purified NCp7 protein resulting in a loss of fluorescence due to the. movement of the tryptophan 37 residue […] position on the protein. Zinc ejection is measured and expressed as either percent decrease in total fluorescence or decrease in relative fluorescence units per min during a 30 min assay (RFU/min). A thiolester is considered within the scope of the invention if any amount of zinc ejection is detected.

[2] = target: T3, recombinant HIV-1 reverse transcriptase (Human immunodeficiency virus type 1 group M subtype B, UniProt P03366); assay: HIV-1 reverse transcriptase assay (rAdT and rCdG template/primer)
T3 construct: recombinant HIV-1 reverse transcriptase; S. Hughes, ABL Basic Research NCI-FCRDC, Frederick Md
Experimental: The 5-bromovaleroyl thioester, compound 44, and two 5-pyridiniovaleroyl thioesters, compounds 45and 47, were analyzed in mechanistic and target-based assays. […] Assays for activity against HIV-1 reverse transcriptase rAdT (template/primer) and rCdG (template/primer) using recombinant HIV-1 reverse transcriptase (S. Hughes, ABL Basic Research NCI-FCRDC, Frederick Md.) were performed as described by Rice (1997) supra. Substrate cleavage of recombinant HIV-1 protease in the presence of test compounds using an HPLC-based methodology with the artificial substrate Ala-Ser-Glu-Asn-Try-Pro-Ile-Val-amide (Multiple Peptide Systems, San Diego Calif.) was performed as described by Rice (1997) supra. The ability of recombinant HIV-1 integrase (S. Hughes, ABL Basic Research NCI-FCRDC, Frederick Md.) to carry out 3′ processing and strand transfer activities in the presence of test compounds was performed as described by Buckheit (1994) AIDS Res. Hum. Retroviruses 10:1497-1506, and Turpin (1998) Antimicrob. Agents Chemother. 42: 487-494.

T1 sequence (P08047 whole entry): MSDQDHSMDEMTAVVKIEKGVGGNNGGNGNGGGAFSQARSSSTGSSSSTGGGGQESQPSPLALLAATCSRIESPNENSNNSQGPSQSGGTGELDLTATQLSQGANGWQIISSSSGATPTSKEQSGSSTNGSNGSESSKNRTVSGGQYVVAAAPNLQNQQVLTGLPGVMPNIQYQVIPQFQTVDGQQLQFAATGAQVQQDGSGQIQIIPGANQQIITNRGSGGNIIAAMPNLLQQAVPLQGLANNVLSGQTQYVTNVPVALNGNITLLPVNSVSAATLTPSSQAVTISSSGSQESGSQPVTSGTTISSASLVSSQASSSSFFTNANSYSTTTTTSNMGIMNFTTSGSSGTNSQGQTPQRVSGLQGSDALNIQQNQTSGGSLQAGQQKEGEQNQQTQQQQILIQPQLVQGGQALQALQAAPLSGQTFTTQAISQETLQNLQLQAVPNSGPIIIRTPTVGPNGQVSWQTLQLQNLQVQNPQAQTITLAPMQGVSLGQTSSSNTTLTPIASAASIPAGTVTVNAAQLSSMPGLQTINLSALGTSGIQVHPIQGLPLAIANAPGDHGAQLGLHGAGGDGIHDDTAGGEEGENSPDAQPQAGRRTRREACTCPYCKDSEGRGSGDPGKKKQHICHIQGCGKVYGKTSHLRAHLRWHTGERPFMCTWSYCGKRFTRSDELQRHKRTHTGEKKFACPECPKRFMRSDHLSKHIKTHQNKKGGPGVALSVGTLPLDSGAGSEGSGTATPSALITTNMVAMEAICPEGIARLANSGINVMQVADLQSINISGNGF

Compound	effect on super shifting of Sp1 bound to its DNA target (Sp1)	zinc finger reactivity (in words) [1]	zinc finger reactivity in the presence of glutathione (in words) [1]	Zinc Finger Reactivity RFU/min ([1]; Table 5) [RFU/min]	Zinc Finger Reactivity RFU/min ([1]; Table 6) [RFU/min]	inhibition at 2000 µM (stock) [1] [%]	inhibition of HIV-1 reverse transcriptase (in words) [2]	zinc finger reactivity / zinc ejection rate [1] [RFU/min]	Zinc Finger Reactivity RFU/min ([1]; Table 10) [RFU/min]	IC50 [2] [µM]	IC50 ([2]; read-out: Reverse transcriptase rCdG I50, Table 7, rCdG template/primer, high dose test 100 μM) [µM]
CC(=O)NS(=O)(=O)c1ccc(NC(=O)c2ccccc2SC(=O)CCCCBr)cc1 [Compound 44, N-[2-(5-bromovaleroylthio)benzoyl]sulfacetamide]	failed to alter the pattern of super shifting of Sp1	promoted metal ion (zinc) ejection	maintained the capacity to attack the cysteine thiols	1.8	1.8	28	did not inhibit	–	–	–	–
CC(=O)NS(=O)(=O)c1ccc(NC(=O)c2ccccc2SC(=O)CCCC[n+]2ccccc2)cc1 [Compound 45, N-[2-(5-pyridinio-valeroylthio)benzoyl]sulfacetamide bromide]	failed to alter the pattern of super shifting of Sp1	promoted metal ion (zinc) ejection	maintained the capacity to attack the cysteine thiols	3.6	3.6	36.9	did not inhibit	3.6	3.6	–	–
O=C(CCCC[n+]1ccccc1)Sc1ccccc1C(=O)Nc1ccc(S(=O)(=O)c2ccc([N+](=O)[O-])cc2)cc1 [Compound 47]	failed to alter the pattern of super shifting of Sp1	promoted metal ion (zinc) ejection	maintained the capacity to attack the cysteine thiols	–	4.1	21.1	did not inhibit	–	–	> 100	> 100
O=C(O)CCCC[n+]1ccccc1.[Br-] [Compound 53, 5-pyridiniovaleric acid]	–	–	–	–	4	–	–	4	–	–	–
